Measured values: US20170335304A1, “OXIDIZED PROTEIN HYDROLASE ACTIVITY ENHANCING AGENT AND GLYCATION STRESS INHIBITOR” (ARKRAY, Inc., priority 2016, published 2017)

Legend:
Format in all cases: biochemical
[1] = biological target: AGEs modified bovine serum albumin (AGE-BSA) cross-linked to collagen (Bos taurus, UniProt P02769); assay: AGEs Cross-Link Breaking Effect Confirmatory Test (Test 2); details: cross-link breaking reaction at 37° C. for 18 hours; punicalagin 5 mmol/L
Procedure: The test was carried out according to the description in Sara Vasan et al. (Nature, 382, pp275-278 (1996)).
300 μL/well of SuperBlock T20 (PBS) Blocking Buffer was added to a commercially available 96-well microplate precoated with collagen, which then was reacted at 37° C. for one hour. After the reaction, it was washed with 0.05% polyethylene (20) sorbitan monolaurate (Tween 20)/PBS(-), and then AGEs modified bovine serum albumin (AGE-BSA) was added to each well of the microplate, which then was subjected to a crosslinking reaction at 37° C. for four hours. After the reaction, it was washed with Tween 20/PBS(-). Thereafter, a plant extract was added to each well and thereby it was subjected to a cross-link breaking (cleaving) reaction at 37° C. for 18 hours. After that, it was washed with Tween 20/PBS(-) and a primary antibody (anti-albumin bovine serum rabbit-polyclonal) was added thereto, which then was reacted at room temperature for 30 minutes. […] As a reaction stop solution, 1N HCl was added thereto, and the absorbance at 450 nm (dominant wavelength)/630 nm (complementary wavelength) was measured with a microplate reader. The amount of AGE-BSA that remained was determined from a calibration curve in which the amount of AGE-BSA was varied. Furthermore, the AGE-BSA decomposition rate (Collagen cross-link decomposition rate)was determined using the following formula. […]

[2] = biological target: T1, Acylamino-acid releasing enzyme (AARE) (OPH) (Sus scrofa, UniProt P19205); assay: OPH Activation Confirmatory Test (Test 2); details: sample solution 5 mg/ml; 24 hours at 37° C.; relative to Ref without sample; n=3
T1 construct: purchased Takara Bio Inc
T1 sequence (P19205 1-732): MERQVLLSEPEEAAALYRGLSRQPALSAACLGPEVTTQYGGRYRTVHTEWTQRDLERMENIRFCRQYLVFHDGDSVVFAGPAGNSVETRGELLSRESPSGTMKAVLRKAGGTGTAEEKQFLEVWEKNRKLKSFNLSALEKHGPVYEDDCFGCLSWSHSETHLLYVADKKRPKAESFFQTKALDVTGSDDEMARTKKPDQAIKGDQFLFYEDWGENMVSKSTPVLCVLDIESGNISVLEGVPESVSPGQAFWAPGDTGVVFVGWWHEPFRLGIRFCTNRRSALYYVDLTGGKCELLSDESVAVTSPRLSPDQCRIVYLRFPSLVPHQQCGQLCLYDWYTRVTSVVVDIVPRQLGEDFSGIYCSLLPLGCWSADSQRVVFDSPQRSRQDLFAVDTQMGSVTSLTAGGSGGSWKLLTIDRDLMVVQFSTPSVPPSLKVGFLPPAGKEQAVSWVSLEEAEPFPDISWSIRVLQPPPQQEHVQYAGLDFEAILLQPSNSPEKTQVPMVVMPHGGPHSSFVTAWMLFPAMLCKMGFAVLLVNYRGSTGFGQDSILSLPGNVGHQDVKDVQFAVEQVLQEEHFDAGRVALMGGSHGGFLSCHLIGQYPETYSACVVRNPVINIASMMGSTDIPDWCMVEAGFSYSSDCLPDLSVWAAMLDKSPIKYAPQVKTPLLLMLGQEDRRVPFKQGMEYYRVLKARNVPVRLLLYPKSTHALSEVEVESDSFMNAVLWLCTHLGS
Procedure: To each plant indicated in Table 3 below, 15 times its amount of water was added and it was extracted at 100° C. for 30 minutes and then was solid-liquid separated and condensed. Thereafter, it was sterilized at 100° C. or higher for 30 minutes or less, which then was spray-dried. Thus, plant extract powders were obtained.
Each plant extract powder mentioned above was diluted with distilled water so as to be 5 mg/ml, which then was used as a sample solution. […]
The OPH Solution, the AAPA solution, and the sample solution (5 mg/mi) were mixed together to be added to each well of a 96-well microplate and then were reacted for 24 hours in an incubator set at 37° C. The absorbance at 405 nm of each reaction solution was measured with a microplate reader.
The enzyme activity of the OPH was determined as variation in absorbance (reaction rate) per hour (the OPH reaction rate of the sample). On the other hand, as a reference (Ref), the same measurement was carried out without adding the sample solution and then the reaction rate was determined (the OPH reaction rate of Ref). Using the OPH reaction rate of the sample and the OPH reaction rate of Ref, the OPH activation rate (%) was calculated from the following formula (n=3). […]

[3] = AGEs Cross-link Breaking Effect Confirmatory Test (Test 1); details: 10 mmol/L PPD, pH 7.4, 37° C., eight hours; n=3; PTB 10 mmol/L
Procedure: The test was carried out according to the description in […] al. (Nature, 382, pp275-278 (1996)). […] A plant extract, 10 mmol/L of PPD, and 0.2 mol/L of phosphate buffer solution (pH 7.4) were mixed together at a ratio of 5:1:4 and then were reacted at 37° C. for eight hours (n=3). After completion of the reaction, hydrochloric acid was added thereto to stop the reaction and thus a reaction solution was obtained. […] The amount of benzoic acid contained in the reaction solution was determined by subtracting the amount of benzoic acid contained in the plant extract, which was measured separately. Since 1 mol of PPD produces 1 mol of benzoic acid, the cross-link breaking rate was calculated by the following formula. Cross-link breaking rate (%)={(A-B)/C}×100 • A: The amount of benzoic acid contained in the reaction solution • B: The amount of benzoic acid contained in the plant extract • C: The amount of PPD provided for the reaction (the amount of the substrate) As a control, a test was carried out using 10 mmol/L of PTB instead of the plant extract.

[4] = AGEs Cross-Link Breaking Effect Confirmatory Test (Test 3); details: same measurement as Test 1, mixture solid content 7.42 mg/mL
Procedure: A plant extract, 10 mmol/L of PPD, and 0.2 mol/L of phosphate buffer solution (pH 7.4) were mixed together at a ratio of 5:1:4 and then were reacted at 37° C. for eight hours (n=3). After completion of the reaction, hydrochloric acid was added thereto to stop the reaction and thus a reaction solution was obtained. […] The amount of benzoic acid contained in the reaction solution was determined by subtracting the amount of benzoic acid contained in the plant extract, which was measured separately. Since 1 mol of PPD produces 1 mol of benzoic acid, the cross-link breaking rate was calculated by the following formula. Cross-link breaking rate (%)={(A−B)/C}×100 • A: The amount of benzoic acid contained in the reaction solution • B: The amount of benzoic acid contained in the plant extract • C: The amount of PPD provided for the reaction (the amount of the substrate) As a control, a test was carried out using 10 mmol/L of PTB instead of the plant extract. The same measurement as in the AGEs cross-link breaking effect confirmatory test (Test 1) was carried out except for using a mixture of plant extracts indicated in Table 6 below.

AGEs modified bovine serum albumin (AGE-BSA) cross-linked to collagen, sequence (P02769 25-607): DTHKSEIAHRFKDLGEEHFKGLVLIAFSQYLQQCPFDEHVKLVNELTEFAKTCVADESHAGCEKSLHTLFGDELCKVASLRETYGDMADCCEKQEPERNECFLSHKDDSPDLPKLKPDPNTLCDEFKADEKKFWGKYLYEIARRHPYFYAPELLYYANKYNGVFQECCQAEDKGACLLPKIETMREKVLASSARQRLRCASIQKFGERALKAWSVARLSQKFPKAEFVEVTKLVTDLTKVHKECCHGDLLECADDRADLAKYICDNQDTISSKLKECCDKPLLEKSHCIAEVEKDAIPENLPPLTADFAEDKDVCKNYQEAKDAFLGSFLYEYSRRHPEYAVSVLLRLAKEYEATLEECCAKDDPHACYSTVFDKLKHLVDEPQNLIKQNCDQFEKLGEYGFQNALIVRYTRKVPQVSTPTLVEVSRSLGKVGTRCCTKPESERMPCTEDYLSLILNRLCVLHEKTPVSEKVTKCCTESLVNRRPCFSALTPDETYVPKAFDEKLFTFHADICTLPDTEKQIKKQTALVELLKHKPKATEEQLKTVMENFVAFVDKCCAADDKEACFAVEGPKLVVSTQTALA

O=C1O[C@H]2[C@@H]3OC(=O)c4cc(O)c(O)c(O)c4-c4c(O)c(O)c5oc(=O)c6c(c(O)c(O)c7oc(=O)c4c5c76)-c4c(cc(O)c(O)c4O)C(=O)OC[C@H]3OC(O)[C@@H]2OC(=O)c2cc(O)c(O)c(O)c2-c2c1cc(O)c(O)c2O (mixture of isomers) [Punicalagin]
Amount of Remaining AGE-BSA [1]: 343.3 ng
Collagen Cross-Link Decomposition Rate (%) [1]: 65.7%

O=C(O[C@@H]1Cc2c(O)cc(O)cc2O[C@@H]1c1cc(O)c(O)c(O)c1)c1cc(O)c(O)c(O)c1 [EGCg, Epigallocatechin gallate]
OPH Activation Rate (%) (Mean Value ± Standard Deviation) [2]: 15.5 ± 3.2%

O=C(C[n+]1ccsc1)c1ccccc1.[Br-] [PTB, N-phenacylthiazolium bromide]
Cross-Link Breaking Rate (%) (Mean Value ± Standard Deviation) [3]: 20.47 ± 0.29%
Cross-Link Breaking Rate (%) (Mean Value ± Standard Deviation) [4]: 25.34 ± 0.19%
